Test results from patent US20020160932A1, “Uncompetitive inhibitors of helicase-primase” (priority 2000, published 2002).
Where two headings read alike, the source gives them in different places.

How the values were obtained:
[1] = test system: HSV-2 MS; assay: in vivo lethal challenge model, HSV-2 MS; settings: for in vivo lethal challenge model HSV-2 MS ED50: p.o., mice, 3 times a day for 5 days, survival; for ED50: Human alphaherpesvirus 2, in Mus musculus, po, 120 h, read-out: in vivo lethal challenge model HSV-2 MS ED50, p.o., mice, 3 times a day for 5 days, survival
Procedure: (§1) 6-week old female mice, strain BALB/cABom, were purchased from a commercial breeder (Bomholtgard Breeding and Research Centre Ltd).
(§2) The animals were anaesthetized with diethyl ether (Merck) in a sealed glass vessel. 50 μl of a dilution of the virus stock (dose for infection 5×10^4 Pfu) were introduced with an Eppendorf pippette into the nose of the anaesthetized animals. This dose leads to death of 90-100% of the animals due to a generalized infection with prominent respiratory and central nervous symptoms after on average between 5 and 8 days.
(§3) 6 hours after the infection, the animals were treated with doses of 0.1-100 mg/kg of body weight 3 times day at 7.00 h, 14.00 h and 19 h over a period of 5 days. The substances were dissolved in DMSO and resuspended in Tylose/PBS (Hoechst) (final concentration 1.5% DMSO, 0.5% Tylose in PBS).
(§4) After the last administration, the animals were observed further and the times of death were recorded.

[2] = test system: HSV-1 Walkie; assay: in vivo lethal challenge model, HSV-1 Walki; settings: for in vivo lethal challenge model HSV-1 Walkie ED50: p.o., mice, 3 times a day for 5 days, survival; for ED50: Human alphaherpesvirus 1, in Mus musculus, po, 120 h, read-out: in vivo lethal challenge model HSV-1 Walkie ED50
Procedure: as §1, §2, §3, §4

[3] = test system: HSV-2 G; assay: in vitro viral replication assay, human HSV-2 G; assay type: cell-based, herpes simplex virus 2; settings: for IC50: in vitro viral replication assay; for SI human HSV-2 G: selectivity index SI=(CC50/IC50);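 for SI human HSV-2 G: ratio of CC50 to antiviral IC50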
[4] = test system: Wild-type HSV-1 (F); assay: in vitro viral replication assay, wild-type HSV-1 (F); assay type: cell-based, herpes simplex virus 1; settings: for SI Wild-type HSV-1 (F): selectivity index SI=(CC50/IC50);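 for SI Wild-type HSV-1 (F): ratio of CC50 to antiviral IC50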
[5] = test system: clinical isolates (39 HSV-1 and 19 HSV-2 isolates); assay: activity on clinical isolates; assay type: cell-based, herpes simplex virus; settings: 39 HSV-1 and 19 HSV-2 isolates tested
[6] = test system: Active substance-resistant HSV-1 (F) mutants; settings: read-out: IC50 Active substance-resistant HSV-1 (F) mutants
[7] = test system: PRV; assay: cells; assay type: cell-based, porcine (PRV); settings: for IC50: read-out: IC50 porcine PRV
[8] = test system: BHV; assay: in vitro viral replication assay, bovine BHV; assay type: cell-based; settings: for IC50: in vitro viral replication assay; for SI bovine BHV: selectivity index SI=(CC50/IC50);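 for SI bovine BHV: ratio of CC50 to antiviral IC50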
[9] = test system: Active substance-resistant HSV-1 (F) mutants; assay: microbe, parasite or virus in culture; settings: Human alphaherpesvirus 1, read-out: IC50 Active substance-resistant HSV-1 (F) mutants
[10] = test system: Acyclovir-resistant HSV-1 (F) mutants; assay: microbe, parasite or virus in culture; assay type: cell-based, herpes simplex virus 1
[11] = molecular target: HSV-1 helicase-primase heterodimer enzyme complex (UL5-UL52-6xHis) (Human herpesvirus 1, UniProt P10189+P10236); assay: HSV-1 DNA-dependent ATPase assay; settings: for type of ATPase inhibition (mechanism): wild-type HSV-1 (F) helicase-primase
Source text: HSV-1 DNA-dependent ATPase assay (this in vitro assay permits testing for inhibition of the HSV-1 helicase-primase).
The HSV-1 helicase-primase heterodimer enzyme complex was [lacuna] with the aid of the recombinant baculovirus expression system in doubly infected Sf9 (Spodoptera frugiperda) cells. One recombinant baculovirus codes for the UL5 helicase gene and the second virus codes for the manipulated UL52-6×His primase gene.
The genes were amplified from the HSV-1 (F) genome by PCR (American Tissue Culture Collection ATCC VR-733) and cloned into the baculovirus (UL5→pFASTBAC1; UL52→pFASTHTb) as described in detail in the instruction manual for BAC-TO-BAC Baculovirus Expression Systems, Life-Technologies.
The purified heterodimeric helicase-primase complex (200 ng) was incubated with 1 μg of DNA (Sigma D3287 or D8681) in 20 mM HEPES (pH 7.6; 4-(2-hydroxyethyl)-1-piperazineethanesulphonic acid), 5 mM MgCl2, 0.2-5 mM ATP, 100 μg of BSA (bovine serum albumin) per ml, 10% glycerol, 1 mM DTT (DL-dithiothreitol) and, where appropriate, inhibitor in the appropriate concentration at 37° C. for 60 min.
The inhibition of the DNA-dependent ATPase activity was calculated from the change in the absorption in the presence and absence of inhibitor.
The Ki values were calculated with the assistance of the Sigma Plot software 4.0 and the method of nonlinear curve regression.
For this purpose, the ATPase activity of the helicase-primase heterodimer (detection through formation of inorganic phosphate (Pi)) was measured in the presence of saturated DNA concentrations and varying ATP and inhibitor concentrations, as explained in the ATPase assay section.

[12] = in vitro viral replication assay, read-out: IC50 Wild-type HSV-1 (F)

Chain of HSV-1 helicase-primase heterodimer enzyme complex (UL5-UL52-6xHis) (P10236 whole entry): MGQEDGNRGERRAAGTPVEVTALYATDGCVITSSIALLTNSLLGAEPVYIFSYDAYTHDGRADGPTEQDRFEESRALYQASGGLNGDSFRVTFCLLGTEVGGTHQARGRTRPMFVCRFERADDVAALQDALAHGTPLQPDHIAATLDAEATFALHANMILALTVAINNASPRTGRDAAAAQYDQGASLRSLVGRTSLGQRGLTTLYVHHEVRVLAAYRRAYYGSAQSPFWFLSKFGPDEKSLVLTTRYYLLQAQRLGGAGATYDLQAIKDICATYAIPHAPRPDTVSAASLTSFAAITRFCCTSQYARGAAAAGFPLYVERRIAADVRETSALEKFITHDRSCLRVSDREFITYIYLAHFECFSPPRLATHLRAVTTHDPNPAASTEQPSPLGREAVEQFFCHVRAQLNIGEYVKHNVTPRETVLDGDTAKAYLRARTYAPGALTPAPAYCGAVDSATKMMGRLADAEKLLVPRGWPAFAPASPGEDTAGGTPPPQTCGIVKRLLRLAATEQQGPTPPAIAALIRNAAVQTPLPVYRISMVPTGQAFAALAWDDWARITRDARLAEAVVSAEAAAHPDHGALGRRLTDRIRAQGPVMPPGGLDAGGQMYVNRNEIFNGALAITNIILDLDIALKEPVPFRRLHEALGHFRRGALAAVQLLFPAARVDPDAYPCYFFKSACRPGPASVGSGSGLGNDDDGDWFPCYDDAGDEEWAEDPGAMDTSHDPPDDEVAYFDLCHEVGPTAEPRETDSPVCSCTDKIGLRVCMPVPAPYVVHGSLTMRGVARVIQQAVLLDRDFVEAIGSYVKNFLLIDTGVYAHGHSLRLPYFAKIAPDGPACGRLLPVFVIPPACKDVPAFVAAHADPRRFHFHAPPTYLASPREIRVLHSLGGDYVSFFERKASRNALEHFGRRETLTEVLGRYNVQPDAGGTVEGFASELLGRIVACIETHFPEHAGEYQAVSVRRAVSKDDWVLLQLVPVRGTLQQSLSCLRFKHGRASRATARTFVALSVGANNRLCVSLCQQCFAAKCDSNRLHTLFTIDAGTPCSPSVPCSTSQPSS
Chain of HSV-1 helicase-primase heterodimer enzyme complex (UL5-UL52-6xHis) (P10189 whole entry): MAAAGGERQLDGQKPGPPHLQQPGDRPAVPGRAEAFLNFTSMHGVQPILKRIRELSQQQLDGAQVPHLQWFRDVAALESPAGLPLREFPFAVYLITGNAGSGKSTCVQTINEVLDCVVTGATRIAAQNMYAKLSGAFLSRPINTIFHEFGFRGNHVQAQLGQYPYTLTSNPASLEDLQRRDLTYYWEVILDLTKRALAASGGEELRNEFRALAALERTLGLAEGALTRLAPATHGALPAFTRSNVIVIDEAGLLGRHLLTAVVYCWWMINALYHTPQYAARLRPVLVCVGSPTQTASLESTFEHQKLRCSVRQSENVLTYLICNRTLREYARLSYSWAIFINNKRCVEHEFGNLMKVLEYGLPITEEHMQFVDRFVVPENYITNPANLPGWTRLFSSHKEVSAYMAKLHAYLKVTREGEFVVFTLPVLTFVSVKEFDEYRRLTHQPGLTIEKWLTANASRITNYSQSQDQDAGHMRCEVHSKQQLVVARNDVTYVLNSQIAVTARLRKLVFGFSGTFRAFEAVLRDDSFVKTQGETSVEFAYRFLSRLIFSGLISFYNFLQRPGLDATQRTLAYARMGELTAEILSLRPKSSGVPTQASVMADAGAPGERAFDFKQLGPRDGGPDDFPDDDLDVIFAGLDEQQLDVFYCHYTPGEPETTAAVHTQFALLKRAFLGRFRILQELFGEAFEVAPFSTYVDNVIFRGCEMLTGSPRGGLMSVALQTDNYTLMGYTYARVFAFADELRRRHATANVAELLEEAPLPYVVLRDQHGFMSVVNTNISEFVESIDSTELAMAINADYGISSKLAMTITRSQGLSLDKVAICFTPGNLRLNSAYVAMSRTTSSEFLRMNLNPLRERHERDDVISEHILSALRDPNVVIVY

CNS(=O)(=O)c1sc(N(C)C(=O)Nc2ccc(N3CCOCC3)cc2)nc1C [Example 2]
in vivo lethal challenge model HSV-2 MS ED50 [1]: weak
in vivo lethal challenge model HSV-1 Walkie ED50 [2]: 26 mg/kg
IC50 [3]: 1500 nM
SI human HSV-2 G [3]: 200
IC50 [4, 12]: 500 nM
SI Wild-type HSV-1 (F) [4]: 400

CNS(=O)(=O)c1sc(N(C)C(=O)Cc2ccc(-c3ccccc3)cc2)nc1C [Example 4]
in vivo lethal challenge model HSV-2 MS ED50 [1]: 3 mg/kg
in vivo lethal challenge model HSV-1 Walkie ED50 [2]: 1 mg/kg
IC50 [3]: 50 nM
SI human HSV-2 G [3]: 5000
IC50 [4, 12]: 0.5 nM
SI Wild-type HSV-1 (F) [4]: 1E+05
activity on clinical isolates [5]: active on all the clinical isolates tested to date
IC50 ([6]; Mutant 2 (UL5 K356N)): > 250 µM
IC50 ([6]; Mutant 6 (UL52 A897T)): > 1 µM
SI porcine PRV [7]: 66
IC50 [7]: 3 µM
IC50 [8]: 150 nM
SI bovine BHV [8]: 400

Nc1nc2c(ncn2COCCO)c(=O)[nH]1 [Acyclovir, acyclovir, reference compound]
ED50 [1]: 16 mg/kg
IC50 [9]: 1000 nM
IC50 ([10]; Human alphaherpesvirus 1, read-out: IC50 Acyclovir-resistant HSV-1 (F) mutants): 125 µM
ED50 [2]: 22 mg/kg
IC50 ([3]; Human alphaherpesvirus 2): 4000 nM
SI human HSV-2 G [3]: 125
IC50 ([4]; Human alphaherpesvirus 1, in vitro viral replication assay, read-out: IC50 Wild-type HSV-1 (F)): 1000 nM
SI Wild-type HSV-1 (F) [4]: 250

Cc1nc(N(C)C(=O)Cc2ccc(-c3ccccn3)cc2)sc1S(N)(=O)=O [Example 7]
ED50 [1]: ~0.5 mg/kg
Ki [11]: 30 nM
type of ATPase inhibition (mechanism) [11]: uncom-
ED50 [2]: 0.5 mg/kg
IC50 ([3]; Human alphaherpesvirus 2): 20 nM
SI human HSV-2 G [3]: 3000
IC50 ([4]; Human alphaherpesvirus 1, read-out: IC50 Wild-type HSV-1 (F)): 20 nM
SI Wild-type HSV-1 (F) [4]: 2500
activity on clinical isolates [5]: active on all the clinical isolates tested to date
SI porcine PRV [7]: >50
IC50 ([7]; Sus scrofa): 5 µM
IC50 ([8]; Bos taurus): 125 nM
SI bovine BHV [8]: 240

Cc1nc(N(C)C(=O)Cc2ccc(-c3cc(F)ccc3F)cc2)sc1S(N)(=O)=O [Example 6]
in vivo lethal challenge model HSV-2 MS ED50 [1]: 0.5 mg/kg
Concentration of liberated inorganic phosphate ([11]; inhibitor 0.00128 μM, ATP 0.3 mM): 0.066 mM
Concentration of liberated inorganic phosphate ([11]; inhibitor 0.00128 μM, ATP 0.4 mM): 0.067 mM
Concentration of liberated inorganic phosphate ([11]; inhibitor 0.00128 μM, ATP 0.6 mM): 0.085 mM
Concentration of liberated inorganic phosphate ([11]; inhibitor 0.00128 μM, ATP 0.8 mM): 0.099 mM
Concentration of liberated inorganic phosphate ([11]; inhibitor 0.00128 μM, ATP 1 mM): 0.108 mM
Concentration of liberated inorganic phosphate ([11]; inhibitor 0.00128 μM, ATP 3 mM): 0.127 mM
Concentration of liberated inorganic phosphate ([11]; inhibitor 0.0064 μM, ATP 0.3 mM): 0.040 mM
Concentration of liberated inorganic phosphate ([11]; inhibitor 0.0064 μM, ATP 0.4 mM): 0.045 mM
Concentration of liberated inorganic phosphate ([11]; inhibitor 0.0064 μM, ATP 0.6 mM): 0.062 mM
Concentration of liberated inorganic phosphate ([11]; inhibitor 0.0064 μM, ATP 0.8 mM): 0.064 mM
Concentration of liberated inorganic phosphate ([11]; inhibitor 0.0064 μM, ATP 1 mM): 0.071 mM
Concentration of liberated inorganic phosphate ([11]; inhibitor 0.0064 μM, ATP 3 mM): 0.113 mM
Concentration of liberated inorganic phosphate ([11]; inhibitor 0.032 μM, ATP 0.3 mM): 0.025 mM
Concentration of liberated inorganic phosphate ([11]; inhibitor 0.032 μM, ATP 0.4 mM): 0.029 mM
Concentration of liberated inorganic phosphate ([11]; inhibitor 0.032 μM, ATP 0.6 mM): 0.037 mM
Concentration of liberated inorganic phosphate ([11]; inhibitor 0.032 μM, ATP 0.8 mM): 0.044 mM
Concentration of liberated inorganic phosphate ([11]; inhibitor 0.032 μM, ATP 1 mM): 0.055 mM
Concentration of liberated inorganic phosphate ([11]; inhibitor 0.032 μM, ATP 3 mM): 0.085 mM
Concentration of liberated inorganic phosphate ([11]; inhibitor 0.16 μM, ATP 0.3 mM): 0.017 mM
Concentration of liberated inorganic phosphate ([11]; inhibitor 0.16 μM, ATP 0.4 mM): 0.022 mM
Concentration of liberated inorganic phosphate ([11]; inhibitor 0.16 μM, ATP 0.6 mM): 0.029 mM
Concentration of liberated inorganic phosphate ([11]; inhibitor 0.16 μM, ATP 0.8 mM): 0.033 mM
Concentration of liberated inorganic phosphate ([11]; inhibitor 0.16 μM, ATP 1 mM): 0.040 mM
Concentration of liberated inorganic phosphate ([11]; inhibitor 0.16 μM, ATP 3 mM): 0.066 mM
Concentration of liberated inorganic phosphate ([11]; inhibitor 0.8 μM, ATP 0.3 mM): 0.010 mM
Concentration of liberated inorganic phosphate ([11]; inhibitor 0.8 μM, ATP 0.4 mM): 0.013 mM
Concentration of liberated inorganic phosphate ([11]; inhibitor 0.8 μM, ATP 0.6 mM): 0.019 mM
Concentration of liberated inorganic phosphate ([11]; inhibitor 0.8 μM, ATP 0.8 mM): 0.023 mM
Concentration of liberated inorganic phosphate ([11]; inhibitor 0.8 μM, ATP 1 mM): 0.027 mM
Concentration of liberated inorganic phosphate ([11]; inhibitor 0.8 μM, ATP 3 mM): 0.054 mM
Concentration of liberated inorganic phosphate ([11]; inhibitor 4 μM, ATP 0.3 mM): 0.006 mM
Concentration of liberated inorganic phosphate ([11]; inhibitor 4 μM, ATP 0.4 mM): 0.007 mM
Concentration of liberated inorganic phosphate ([11]; inhibitor 4 μM, ATP 0.6 mM): 0.010 mM
Concentration of liberated inorganic phosphate ([11]; inhibitor 4 μM, ATP 0.8 mM): 0.012 mM
Concentration of liberated inorganic phosphate ([11]; inhibitor 4 μM, ATP 1 mM): 0.018 mM
Concentration of liberated inorganic phosphate ([11]; inhibitor 4 μM, ATP 3 mM): 0.044 mM
Concentration of liberated inorganic phosphate ([11]; inhibitor 20 μM, ATP 0.3 mM): 0.004 mM
Concentration of liberated inorganic phosphate ([11]; inhibitor 20 μM, ATP 0.4 mM): 0.004 mM
Concentration of liberated inorganic phosphate ([11]; inhibitor 20 μM, ATP 0.6 mM): 0.006 mM
Concentration of liberated inorganic phosphate ([11]; inhibitor 20 μM, ATP 0.8 mM): 0.010 mM
Concentration of liberated inorganic phosphate ([11]; inhibitor 20 μM, ATP 1 mM): 0.008 mM
Concentration of liberated inorganic phosphate ([11]; inhibitor 20 μM, ATP 3 mM): 0.030 mM
Concentration of liberated inorganic phosphate ([11]; inhibitor 100 μM, ATP 0.3 mM): 0.005 mM
Concentration of liberated inorganic phosphate ([11]; inhibitor 100 μM, ATP 0.4 mM): 0.006 mM
Concentration of liberated inorganic phosphate ([11]; inhibitor 100 μM, ATP 0.6 mM): 0.008 mM
Concentration of liberated inorganic phosphate ([11]; inhibitor 100 μM, ATP 0.8 mM): 0.008 mM
Concentration of liberated inorganic phosphate ([11]; inhibitor 100 μM, ATP 1 mM): 0.014 mM
Concentration of liberated inorganic phosphate ([11]; inhibitor 100 μM, ATP 3 mM): 0.032 mM
Ki ([11]; read-out: in vitro ATPase inhibition wild-type HSV-1 (F) Ki, nonlinear curve regression): 7 nM
type of ATPase inhibition (mechanism) [11]: un-
in vivo lethal challenge model HSV-1 Walkie ED50 [2]: >0.5 mg/kg
activity on clinical isolates [5]: active on all the clinical isolates tested to date
IC50 ([6]; M1 + M2 (UL5 G352V)): > 125 µM
SI porcine PRV [7]: 133
IC50 [7]: 1.5 µM
IC50 [8]: 30 nM
SI bovine BHV [8]: 6660

CC(C)[C@H](N)C(=O)OCCOCn1cnc2c(=O)[nH]c(N)nc21 [Valtrex, reference compound]
ED50 [1]: 14 mg/kg
ED50 [2]: 17 mg/kg

Cc1nc(N(C)C(=O)Cc2ccc(-c3ccccc3)cc2)sc1S(N)(=O)=O [Example 5]
in vivo lethal challenge model HSV-2 MS ED50 [1]: 1.1 mg/kg
in vivo lethal challenge model HSV-1 Walkie ED50 [2]: 0.5 mg/kg
IC50 [3]: 5 nM
SI human HSV-2 G [3]: 50000
activity on clinical isolates [5]: active on all the clinical isolates tested to date
SI porcine PRV [7]: 13
IC50 [7]: 8 µM
IC50 [8]: 50 nM
SI bovine BHV [8]: 5000

CNS(=O)(=O)c1sc(N(C)C(=O)Nc2ccc(-c3ccccc3)cc2)nc1C [Example 3]
in vivo lethal challenge model HSV-2 MS ED50 [1]: 11 mg/kg
in vivo lethal challenge model HSV-1 Walkie ED50 [2]: 8 mg/kg
IC50 [3]: 5 nM
SI human HSV-2 G [3]: 25000
IC50 [4, 12]: 1 nM
SI Wild-type HSV-1 (F) [4]: 3E+05
IC50 ([6]; mutant not named): > 250 µM

Cc1nc(N(C)C(=O)Nc2ccc(N3CCOCC3)cc2)sc1S(=O)(=O)N(C)C [Example 1]
in vivo lethal challenge model HSV-2 MS ED50 [1]: weak
IC50 ([10]; in vitro viral replication assay, read-out: IC50 Acyclovir-resistant HSV-1 (F) mutants): 0.75 µM
in vivo lethal challenge model HSV-1 Walkie ED50 [2]: 60 mg/kg
IC50 [3]: 1500 nM
SI human HSV-2 G [3]: 167
IC50 [4, 12]: 750 nM
SI Wild-type HSV-1 (F) [4]: 350
activity on clinical isolates [5]: active on all the clinical isolates tested to date
IC50 ([6]; Mutant 1 (UL5 M355V, UL5 V6621, UL52 A897T)): > 250 µM
SI porcine PRV [7]: >63
IC50 [7]: 4 µM
IC50 [8]: 1500 nM
SI bovine BHV [8]: >167
